These results are taken from patent publication US6458823B1, “Diaminopyrazoles” (Wyeth, priority 1998, dated 2002).

Data set [1] relates to Isolated Rat Bladder Strips. Nature of the data set: Inhibition of contractions in isolated rat bladder strips (KCl-enhanced contractile activity). Also noted: species or system Sprague-Dawley rats. The settings on record: 0.5 h, 15 mM KCl added, contractile activity measured in last minute of 30 minute challenge. Here is the method: Sprague-Dawley rats (150-200 g) are rendered unconscious by CO2 asphyxiation and then euthanized by cervical dislocation. The bladder is removed into warm (37° C.) physiological salt solution (PSS) of the following composition (mM): NaCl, 118.4; KCI, 4.7; CaCl2, 2.5; MgSO4, […]; NaHCO3, 24.9; KH2PO4, 1.2; glucose, 11.1; EDTA, 0.023; gassed with […]; pH 7.4. The bladder is opened and then cut into strips 1-2 mm in width and 7-10 nmm in length. The strips are subsequently suspended in a 10 mL tissue bath under an initial resting tension of 1.5 g. The strips are held in place by two surgical clips one of which is attached to a fixed hook while the other is attached to an isometric force transducer. […] The carbachol is then washed out and the tissue allowed to relax to its resting level of activity. Following a further 30 min period of recovery an additional 15 mM KCl are introduced into the tissue bath. This increase in KCl concentration results in a large increase in the amplitude of spontaneous contractions (and initiation of contractions in previously quiescent strips) superimposed upon a small increase in basal tone. Following stabilization of this enhanced level of contractile activity, incremental increases in the concentration of test compound or vehicle are introduced into the tissue bath. Contractile activity is measured for each compound or vehicle concentration during the last minute of a 30 minute challenge.
The isometric force developed by the bladder strips is measured using a […] to elicit 50% inhibition of pre-drug contractile activity (IC50 concentration) and is calculated from this concentration-response curve.

Data set [2] has as its system hypertrophied bladder (detrusor) smooth muscle. Nature of the data set: Inhibition of spontaneous contractions in vivo, hypertrophied rat bladder model (cystometry). On the set-up: species or system Female Sprague-Dawley rats. The settings on record: 10 mg/kg p.o., cystometry one hour after dosing. The protocol: In addition, we tested the ability of compounds to inhibit the hyperactivity of hypertrophied bladder (detrusor) smooth muscle in conscious female rats with hypertrophied bladders and thereby alleviate urinary incontinence in rats according to the following protocol described by Malmgren et al. (J. Urol. 1989, 142, 1134.):
Female Sprague-Dawley rats, ranging in weight from 190-210 g are used. Up to 25 animals are prepared each time. After development of bladder hypertrophy 4-8 animals are used per test.
Compounds are dissolved in PEG-200 and administered by gastric gavage or intravenously in a volume of 5 mL/kg. For primary screening all drugs are administered at the arbitrary dose of 10 mg/kg p.o. to groups of 4 rats.
The animals are anesthetized with halothane. Through a midline incision the bladder and urethra are exposed and a ligature of 4-0 silk is tied around the proximal urethra in the presence of a stainless steel rod (1 mm diameter) to produce a partial occlusion. […] The following urodynamic variables are recorded: […]
The mean value of each variable is calculated before and after compound administration. For each compound the changes in the variables measured are compared to the values obtained before treatment and expressed as percent inhibition. The data are also subjected to 2-way analysis of variance to determine significant (p<0.05) changes in the variable measured. […]

Where a name gives a salt, the structure may show the parent alone.

In general, melting point refers to the temperature of the solid-liquid transition. The compound `Cc1nn(C)c(NCC(C)(C)C)c1NCc1ccc(C#N)cc1` (as salt: tosylate) [Example 2, 4-{[5-(2,2-Dimethyl-propylamino)-1,3-dimethyl-1H-pyrazol-4-ylamino]-methyl}-benzonitrile] yielded a melting point of 102 to 104 °C. A word on the IC50: it is the midpoint of a concentration-inhibition curve. As to `Cc1nn(C)c(NCC(C)(C)C)c1NCc1ccncc1` [Example 1, N(3)-(2,2-Dimethyl-propyl)-2,5-dimethyl-N(4)-pyridin-4-ylmethyl-2H-pyrazole-3,4-diamine], the melting point fell in the range of 88 to 90 °C. Also, the IC50 in data set [1] was determined as 4.9 µM. For the same compound, the “% Red (F): percent reduction in the total number of spontaneous contractions” value in data set [2] is given as −36 ± 7%. Turning to `Cc1nn(C)c(NCC(C)(C)C)c1NCc1ccc(C#N)cc1` [Example 2, 4-{[5-(2,2-Dimethyl-propylamino)-1,3-dimethyl-1H-pyrazol-4-ylamino]-methyl}-benzonitrile], the IC50 in data set [1] came to 8.26 µM. In turn, `Cc1nn(C)c(NCC(C)(C)C)c1NCc1ccc(F)cc1` [Example 3, N(3)-(2,2-Dimethyl-propyl)-N(4)-(4-fluoro-benzyl)-2,5-dimethyl-2H-pyrazole-3,4-diamine] showed a melting point of 32 to 39 °C. In data set [1], the IC50 was determined as 11.5 µM. For `Cc1nn(C)c(NCC(C)(C)C)c1NCc1ccc(Cl)cc1Cl` [Example 4, N(4)-(2,4-Dichloro-benzyl)-N(3)-(2,2-dimethyl-propyl)-2,5-dimethyl-2H-pyrazole-3,4-diamine], in data set [1], the IC50 worked out at 11.8 µM. In the case of `CCC(C)(C)CNc1c(NCc2ccc(C#N)cc2)c(C)nn1C` [Example 5, 4-{[5-(2,2-Dimethyl-butylamino)-1,3-dimethyl-1H-pyrazol-4-ylamino]-methyl}-benzonitrile], in data set [1], the IC50 turned out to be 12.6 µM. `Cc1nn(C)c(NCC(C)(C)C)c1NCc1ccc(F)cc1F` [Example 6, N(4)-(2,4-Difluoro-benzyl)-N(3)-(2,2-dimethyl-propyl)-2,5-dimethyl-2H-pyrazole-3,4-diamine]: the IC50 in data set [1] was found to be 13.5 µM.

For the compound `Cc1nn(C)c(NCC(C)(C)C)c1NCc1cccnc1` [Example 7, N(3)-(2,2-Dimethyl-propyl)-2,5-dimethyl-N(4)-pyridin-3-ylmethyl-2H-pyrazole-3,4-diamine], in data set [1], the IC50 was 15.4 µM. `Cc1cc(C)c(CNc2c(C)nn(C)c2NCC(C)(C)C)c(C)c1` [Example 8, N(3)-(2,2-Dimethyl-propyl)-2,5-dimethyl-N(4)-(2,4,6-trimethyl-benzyl)-2H-pyrazole-3,4-diamine]: the melting point fell in the range of 114 to 120 °C. Also, in data set [1], the half-maximal inhibitory concentration (IC50) came out at 17.8 µM. As to `CCC(C)(C)CNc1c(NCc2ccncc2)c(C)nn1C` [Example 9, N(3)-(2,2-Dimethyl-butyl)-2,5-dimethyl-N(4)-pyridin-4-ylmethyl-2H-pyrazole-3,4-diamine], the IC50 in data set [1] was 19.2 µM. Same read-out and setting: to `CCC(C)(C)CNc1c(NCc2ccccc2)c(C)nn1C` [Example 10, N(4)-Benzyl-N(3)-(2,2-dimethyl-butyl)-2,5-dimethyl-2H-pyrazole-3,4-diamine] belongs 19.9 µM; to `Cc1nn(C)c(NCC(C)(C)C)c1Nc1ccccc1` [Example 11, N(3)-(2,2-Dimethyl-propyl)-2,5-dimethyl-N(4)-phenyl-2H-pyrazole-3,4-diamine], 4.3 µM; to `Cc1cc(Cl)ccc1Nc1c(C)nn(C)c1NCC(C)(C)C` [Example 12, N(4)-(4-Chloro-2-methyl-phenyl)-N(3)-(2,2-dimethyl-propyl)-2,5-dimethyl-2H-pyrazole-3,4-diamine], 12.5 µM. `Cc1nn(C)c(NCC(C)(C)C)c1Nc1ccc(C#N)cc1` [Example 13, 4-[5-(2,2-Dimethyl-propylamino)-1,3-dimethyl-1H-pyrazol-4-ylamino]-benzonitrile] displayed a melting point of 131 to 134 °C. The IC50 in data set [1] is 17.9 µM. Turning to `Cc1nn(C)c(NCC(C)(C)C)c1Nc1ccc(Cl)cc1` [Example 14, N(4)-(4-Chloro-phenyl)-N(3)-(2,2-dimethyl-propyl)-2,5-dimethyl-2H-pyrazole-3,4-diamine], the IC50 in data set [1] came out at 22.9 µM.
